Source: ChEMBL document CHEMBL3739320, “Synthesis and biological evaluation of novel semi-conservative monocarbonyl analogs of curcumin as anti-inflammatory agents” (Medchemcomm, 2015)
Activity calls are given as the source filed them. The rule behind the calls is not given here.

Tests used:
[1] = Cytotoxicity against human HL-7702 cells at 10 uM after 24 hrs by MTT assay; type: cell-based; conditions: l02, 24 h
[2] = test system: RAW264.7; assay: Antiinflammatory activity in LPS-induced mouse RAW264.7 macrophages assessed as suppression of TNF-alpha release pretreated at 10 uM for 2 hrs followed by stimulation with LPS for 22 hrs by ELISA; type: functional, cell-based
[3] = test system: RAW264.7; assay: Antiinflammatory activity in LPS-induced mouse RAW264.7 macrophages assessed as suppression of TNF-alpha release pretreated for 2 hrs followed by stimulation with LPS for 22 hrs by ELISA; type: functional, cell-based
[4] = test system: RAW264.7; assay: Antiinflammatory activity in LPS-induced mouse RAW264.7 macrophages assessed as suppression of IL-1beta mRNA level pretreated at 10 uM for 2 hrs followed by stimulation with LPS for 6 hrs by RT-qPCR analysis; type: functional, cell-based
[5] = test system: RAW264.7; assay: Antiinflammatory activity in LPS-induced mouse RAW264.7 macrophages assessed as suppression of IL-6 release pretreated for 2 hrs followed by stimulation with LPS for 22 hrs by ELISA; type: functional, cell-based
[6] = test system: RAW264.7; assay: Antiinflammatory activity in LPS-induced mouse RAW264.7 macrophages assessed as suppression of COX-2 mRNA level pretreated at 10 uM for 2 hrs followed by stimulation with LPS for 6 hrs by RT-qPCR analysis; type: functional, cell-based
[7] = test system: Peritoneal macrophage cell; assay: Antiinflammatory activity in LPS-induced ICR mouse peritoneal macrophages assessed as suppression of IL-6 release pretreated for 2 hrs followed by stimulation with LPS for 22 hrs by ELISA; type: functional, cell-based
[8] = test system: Peritoneal macrophage cell; assay: Antiinflammatory activity in LPS-induced ICR mouse peritoneal macrophages assessed as suppression of TNF-alpha release pretreated for 2 hrs followed by stimulation with LPS for 22 hrs by ELISA; type: functional, cell-based
[9] = test system: RAW264.7; assay: Antiinflammatory activity in LPS-induced mouse RAW264.7 macrophages assessed as suppression of IL-6 mRNA level pretreated at 10 uM for 2 hrs followed by stimulation with LPS for 6 hrs by RT-qPCR analysis; type: functional, cell-based
[10] = test system: RAW264.7; assay: Antiinflammatory activity in LPS-induced mouse RAW264.7 macrophages assessed as suppression of TNF-alpha mRNA level pretreated at 10 uM for 2 hrs followed by stimulation with LPS for 6 hrs by RT-qPCR analysis; type: functional, cell-based
[11] = Stability in phosphate buffer at pH 7.4 by UV-visible absorption analysis; type: physicochemical
[12] = test system: RAW264.7; assay: Antiinflammatory activity in LPS-induced mouse RAW264.7 macrophages assessed as suppression of TNF-alpha mRNA level pretreated for 2 hrs followed by stimulation with LPS for 6 hrs by RT-qPCR analysis; type: functional, cell-based
[13] = test system: RAW264.7; assay: Inhibition of LPS-induced IkappaB-alpha degradation in LPS-induced mouse RAW264.7 cells pretreated for 2 hrs followed by stimulation with LPS for 1 hr by Western blot analysis; type: cell-based
[14] = molecular target: Transcription factor p65 (Mus musculus) (UniProt Q04207); assay: Inhibition of NFkappaB in LPS-induced mouse RAW264.7 cells assessed as increase in P65 in cytosol pretreated for 2 hrs followed by stimulation with LPS for 1 hr by Western blot analysis; type: cell-based
Sequence of Transcription factor p65 (Mus musculus) (Q04207 whole entry): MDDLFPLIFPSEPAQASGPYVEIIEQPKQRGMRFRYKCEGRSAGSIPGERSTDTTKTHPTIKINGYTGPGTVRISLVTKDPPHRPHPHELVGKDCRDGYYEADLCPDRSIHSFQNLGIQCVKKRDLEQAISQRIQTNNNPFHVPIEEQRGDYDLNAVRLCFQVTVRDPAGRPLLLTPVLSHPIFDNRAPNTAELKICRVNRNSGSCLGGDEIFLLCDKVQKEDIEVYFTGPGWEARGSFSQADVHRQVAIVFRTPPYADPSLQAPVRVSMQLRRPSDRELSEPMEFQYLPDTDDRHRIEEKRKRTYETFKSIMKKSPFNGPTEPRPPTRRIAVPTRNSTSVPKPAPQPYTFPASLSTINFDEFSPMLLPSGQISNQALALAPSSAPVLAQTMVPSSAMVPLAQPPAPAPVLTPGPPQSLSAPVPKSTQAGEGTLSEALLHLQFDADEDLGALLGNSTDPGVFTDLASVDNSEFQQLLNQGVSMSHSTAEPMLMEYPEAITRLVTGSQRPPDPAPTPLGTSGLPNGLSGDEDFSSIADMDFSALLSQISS

[15] = molecular target: Transcription factor p65 (Mus musculus) (UniProt Q04207); assay: Inhibition of NFkappaB in LPS-induced mouse RAW264.7 cells assessed as decrease in P65 in nucleus pretreated for 2 hrs followed by stimulation with LPS for 1 hr by Western blot analysis; type: cell-based
[16] = test system: RAW264.7; assay: Antiinflammatory activity in LPS-induced mouse RAW264.7 macrophages assessed as suppression of IL-1beta mRNA level pretreated for 2 hrs followed by stimulation with LPS for 6 hrs by RT-qPCR analysis; type: functional, cell-based
[17] = test system: RAW264.7; assay: Inhibition of NFkappaB in LPS-induced mouse RAW264.7 cells assessed as suppression of binding of NF-kappabeta with DNA in nucleus pretreated for 2 hrs followed by stimulation with LPS for 1 hr by EMSA; type: cell-based
[18] = test system: Mus musculus; assay: Antiinflammatory activity in LPS-induced C57BL/6 mouse assessed as survival rate pretreated at 10 mg/kg, iv for 15 mins followed by LPS stimulation measured for 7 days; type: functional; conditions: C57BL/6, iv
[19] = test system: RAW264.7; assay: Antiinflammatory activity in LPS-induced mouse RAW264.7 macrophages assessed as suppression of IL-6 mRNA level pretreated for 2 hrs followed by stimulation with LPS for 6 hrs by RT-qPCR analysis; type: functional, cell-based
[20] = test system: RAW264.7; assay: Antiinflammatory activity in LPS-induced mouse RAW264.7 macrophages assessed as suppression of COX-2 mRNA level pretreated for 2 hrs followed by stimulation with LPS for 6 hrs by RT-qPCR analysis; type: functional, cell-based

COc1cc(/C=C/C(=O)/C=C/c2c(F)cccc2Br)ccc1O
Activity [1]: Non-toxic

COc1cc(/C=C/C(=O)/C=C/c2ccc(C(C)C)cc2)ccc1O
inhibition [2]: Active | Activity [1]: Non-toxic

COc1cc(/C=C/C(=O)/C=C/c2ccc(OC(C)=O)cc2)ccc1O
Activity [1]: Non-toxic

COc1cc(/C=C/C(=O)/C=C/c2ccc(O)cc2Br)ccc1O
inhibition [2]: Active | Activity [1]: Non-toxic

COc1cc(/C=C/C(=O)/C=C/c2cc([N+](=O)[O-])ccc2F)ccc1O
Activity [1]: Non-toxic

C=CCOc1ccc(/C=C/C(=O)/C=C/c2ccc(O)c(OC)c2)cc1
Activity [1]: Non-toxic

COc1cc(/C=C/C(=O)/C=C/c2ccc(Br)c(F)c2)ccc1O
Activity [1]: Non-toxic

COc1ccc(F)c(/C=C/C(=O)/C=C/c2ccc(O)c(OC)c2)c1
Activity [1]: Non-toxic

COc1cc(/C=C/C(=O)/C=C/c2cc(Br)ccc2Br)ccc1O
inhibition [2]: Active | Activity [1]: Non-toxic

COc1cc(/C=C/C(=O)/C=C/c2ccccc2Cl)ccc1O
Activity [1]: Non-toxic

COc1cc(/C=C/C(=O)/C=C/c2ccc(C(F)(F)F)cc2)ccc1O
inhibition [2]: Active | Activity [1]: Non-toxic

COc1cc(/C=C/C(=O)/C=C/c2cccc(C(F)(F)F)c2F)ccc1O
inhibition [2]: Active | Activity [1]: Non-toxic

COc1cc(/C=C/C(=O)/C=C/c2cc3c(cc2Br)OCO3)ccc1O
inhibition [3]: Dose-dependent effect | inhibition [4]: Active | inhibition [5]: Dose-dependent effect | inhibition [6]: Active | inhibition [2]: Active | inhibition [7]: Dose-dependent effect | inhibition [8]: Dose-dependent effect | inhibition [9]: Active | Activity [1]: Non-toxic | inhibition [10]: Active

COc1cc(/C=C/C(=O)/C=C/c2cccc(Cl)c2Cl)ccc1O
inhibition [2]: Active | Activity [1]: Non-toxic

COc1cc(/C=C/C(=O)/C=C/c2ccc(OC)c(OC)c2OC)ccc1O
inhibition [3]: Dose-dependent effect | inhibition [4]: Active | inhibition [5]: Dose-dependent effect | inhibition [6]: Active | Stability [11]: Stable | inhibition [2]: Active | inhibition [7]: Dose-dependent effect | inhibition [8]: Dose-dependent effect | inhibition [9]: Active | Activity [1]: Non-toxic | inhibition [10]: Active

COc1ccc(/C=C/C(=O)/C=C/c2ccc(O)c(OC)c2)c(F)c1
inhibition [3]: Dose-dependent effect | inhibition [4]: Active | inhibition [5]: Dose-dependent effect | inhibition [6]: Active | inhibition [2]: Active | inhibition [7]: Dose-dependent effect | inhibition [8]: Dose-dependent effect | inhibition [9]: Active | Activity [1]: Non-toxic | inhibition [10]: Active

COc1cc(/C=C/C(=O)/C=C/c2ccccc2Br)ccc1O
Activity [1]: Non-toxic

COc1cc(/C=C/C(=O)/C=C/c2c(C)cc(C)cc2C)ccc1O
inhibition [3]: Dose-dependent effect | inhibition [4]: Active | inhibition [5]: Dose-dependent effect | inhibition [6]: Active | inhibition [2]: Active | inhibition [7]: Dose-dependent effect | inhibition [8]: Dose-dependent effect | inhibition [9]: Active | Activity [1]: Non-toxic | inhibition [10]: Active

COc1cc(/C=C/C(=O)/C=C/c2ccc([N+](=O)[O-])cc2[N+](=O)[O-])ccc1O
Activity [1]: Non-toxic

COc1cc(/C=C/C(=O)/C=C/c2cc(F)ccc2F)ccc1O
inhibition [2]: Active | Activity [1]: Non-toxic

COc1cc(/C=C/C(=O)/C=C/c2ccc(C(F)(F)F)cc2C(F)(F)F)ccc1O
inhibition [2]: Active | Activity [1]: Non-toxic

COc1cc(/C=C/C(=O)/C=C/c2cccc(Br)c2)ccc1O
inhibition [2]: Active | Activity [1]: Non-toxic

COc1cc(/C=C/C(=O)/C=C/c2cccc(O)c2)ccc1O
inhibition [2]: Active | Activity [1]: Non-toxic

COc1cc(/C=C/C(=O)/C=C/c2ccc3c(c2)CCN3)ccc1O
Activity [1]: Non-toxic

COc1ccc(Br)c(/C=C/C(=O)/C=C/c2ccc(O)c(OC)c2)c1
inhibition [2]: Active | Activity [1]: Non-toxic

COc1cc(/C=C/C(=O)CC(=O)/C=C/c2ccc(O)c(OC)c2)ccc1O [CURCUMIN]
inhibition [2]: Active | Activity [1]: Non-toxic

COc1cc(/C=C/C(=O)/C=C/c2ccccc2[N+](=O)[O-])ccc1O
inhibition [3]: Dose-dependent effect | inhibition [4]: Active | inhibition [12]: Dose-dependent effect | inhibition [5]: Dose-dependent effect | Activity [13]: Dose-dependent effect | Activity [14]: Active | Activity [15]: Active | inhibition [6]: Active | inhibition [16]: Dose-dependent effect | Stability [11]: Stable | inhibition [17]: Active | inhibition [2]: Active | survival at 10 mg/kg [18]: 55% | inhibition [7]: Dose-dependent effect | inhibition [8]: Dose-dependent effect | inhibition [19]: Dose-dependent effect | inhibition [9]: Active | Activity [1]: Non-toxic | inhibition [20]: Dose-dependent effect | inhibition [10]: Active

COc1cc(/C=C/C(=O)/C=C/c2ccc3ccccc3c2)ccc1O
Activity [1]: Non-toxic

COc1cc(/C=C/C(=O)/C=C/c2cc(F)ccc2Br)ccc1O
inhibition [2]: Active | Activity [1]: Non-toxic

COc1cc(/C=C/C(=O)/C=C/c2ccc(OC)c(Br)c2)ccc1O
inhibition [3]: Dose-dependent effect | inhibition [4]: Active | inhibition [5]: Dose-dependent effect | inhibition [6]: Active | inhibition [2]: Active | inhibition [7]: Dose-dependent effect | inhibition [8]: Dose-dependent effect | inhibition [9]: Active | Activity [1]: Non-toxic | inhibition [10]: Active

COc1cc(/C=C/C(=O)/C=C/c2ccccc2C(F)(F)F)ccc1O
inhibition [2]: Active | Activity [1]: Non-toxic

COc1cc(/C=C/C(=O)/C=C/c2ccc(Br)cc2)ccc1O
Activity [1]: Non-toxic
